# Data reported in patent US9610258B2, “Methods of stabilizing the extracellular matrix and compositions therefor” (priority 2011, dated 2017).
# Values joined by “and” are separate entries in the source; they are usually repeats but may differ in a detail not shown here. Equal entries are not always repeated.
# Columns and labels:
# [1] = system: ear edema; settings: cited from earlier work
# [2] = in topical formulations; cited from earlier work
# [3] = system: oxazolone-induced ear edema in BALB/c mice; experiment: Oxazolone-induced murine ear edema, second formalized study; assay type: in vivo; settings: for reduction / inhibition of oxazolone-induced ear edema: as stated in running text per treatment group; for Change in Ear Weight, Mean: group mean, 8 mice, acetone vehicle 74.6; for Left Ear weight / Right Ear weight / ΔWt., change in mouse ear weight: individual mice, 24 h after oxazolone challenge; for % Inhibition of change in ear weight: vs acetone vehicle group
# Description: The present example assesses the anti-inflammatory activity of a topically applied formulation in accordance with one aspect of the present invention in a prophylactic and therapeutic model of ear edema in BALB/c mice. […] Louis, Mo., USA) to 20 mL acetone (Acros Organics, Cat. 42324-0010, lot B4522107, Thermo Fisher Scientific, Princeton, N.J., USA). The mixture was gently heated until a bright yellow color. 52 BALB/c mice (Harlan Sprague-Dawley, Inc., Indianapolis, Ind., USA, male, 6-7 weeks old) were received, individually examined and housed in six cages of eight mice each and one cage containing four mice. No clinical signs of disease or distress were observed. The mice were placed in quarantine with daily inspections. […] The mixture was gently heated until a bright yellow color. […] This equated to 0.336 mg of cream per ear. 0.6 mg betamethasone-21-valerate (Sigma Chem., Cat. […] PZ0008, lot 020M47044) was suspended in […] dH2O (1 mg/mL) for Group 4. […] Twenty-four hours after oxazolone challenge, the mice were euthanized, and the ears were removed and weighed.
# [4] = 12-month aging of topical cream, isothiocyanate concentration by HPLC; assay type: physicochemical; settings: Table 11 cream; for isothiocyanate concentration in cream, 4 months: aged 4 months; for isothiocyanate concentration in cream, 8 months: aged 8 months; for isothiocyanate concentration in cream, 12 months: aged 12 months; for isothiocyanate concentration in cream, Original: time 0
# Description: To determine the effects of aging of the topical cream formulations on the potency of the included bioactives, a study was performed as described in Table 12. Shown is a 12-month aging of the orthomolecular transdermal formulation as described in Table 11. Bio-encapsulation of the isothiocyanates, such as cyclodextrin R-sulforaphane, is not commonly available, and can suffer instability depending on the cream base used. Since topical formulations are applied to the skin, consideration of noxious volatile sulfur emissions and dermal irritation, especially from broccoli, wasabi, and mustard extracts, limit their amount and source. Table 12 illustrates that stabilization of orthomolecular ingredients such as isothiocyanates can be accomplished in a topical formulation.
# [5] = system: breast cancer; settings: women living at least one year after breast cancer diagnosis; cited from earlier work
# [6] = system: mice; settings: mouse, in vivo; cited from earlier work
compound,measurement,setting,value
"Oc1ccc(/C=C/c2cc(O)cc(O)c2)cc1 [trans-resveratrol, 3,5,4′-trihydroxy-trans-stilbene]",inhibition of edema,"[1]; commercially-purified, at similar concentration to that of the topical formulation",35%
COc1ccc2c(c1)c(CC(=O)O)c(C)n2C(=O)c1ccc(Cl)cc1 [indomethacin],inhibition / reduction of edema reported by studies of individual topical components,"[1]; research grade trans-resveratrol, indomethacin 0.5 mg/ear",45%
C[S+]([O-])CCCCN=C=S (centres unmarked) [Sulforaphane],time to decline to a zero level,[2],30 days
"Cc1ccc(-c2cc(C(F)(F)F)nn2-c2ccc(S(N)(=O)=O)cc2)cc1 [Oral Celecoxib, celecoxib]",reduction / inhibition of oxazolone-induced ear edema,[3],37%
same,"Change in Ear Weight, Mean",[3],46.7 mg
same,Left Ear weight,[3],27.52 mg and 25.00 mg and 22.00 mg and 27.84 mg and 30.30 mg and 26.29 mg and 23.89 mg and 23.84 mg
same,Right Ear weight,[3],79.55 mg and 68.55 mg (2×) and 72.46 mg and 81.00 mg and 75.32 mg and 72.39 mg and 62.48 mg
same,"ΔWt., change in mouse ear weight",[3],52.03 mg and 43.55 mg and 46.55 mg and 44.62 mg and 50.70 mg and 49.03 mg and 48.50 mg and 38.64 mg
same,% Inhibition of change in ear weight,[3],37%
C[S@+]([O-])CCCCN=C=S [L-Sulforaphane],"isothiocyanate concentration in cream, 4 months",[4],0.358 Mg/gm
same,"isothiocyanate concentration in cream, 8 months",[4],1.105 Mg/gm
same,"isothiocyanate concentration in cream, 12 months",[4],1.841 Mg/gm
same,"isothiocyanate concentration in cream, Original",[4],0.606 Mg/gm
CC(=O)Oc1ccccc1C(=O)O [aspirin],decrease in distant recurrence and breast cancer death,[5],~50%
betamethasone-21-valerate [Topical Betamethasone],reduction / inhibition of oxazolone-induced ear edema,[3],69%
same,"Change in Ear Weight, Mean",[3],23.7 mg
same,Left Ear weight,[3],22.10 mg and 23.20 mg and 24.56 mg and 20.44 mg and 21.26 mg and 22.60 mg (2×) and 25.74 mg
same,Right Ear weight,[3],48.00 mg and 45.52 mg and 48.66 mg and 47.03 mg and 41.34 mg and 45.70 mg and 49.51 mg and 46.30 mg
same,"ΔWt., change in mouse ear weight",[3],25.90 mg and 22.32 mg and 24.10 mg and 26.59 mg and 20.08 mg and 23.10 mg and 26.91 mg and 20.56 mg
same,% Inhibition of change in ear weight,[3],68%
"C[S@@+]([O-])C=CCCN=C=S [Sulforaphene, 4-isothiocyanato-(1R)-(methylsulphinyl)-1-(E)-butene]","isothiocyanate concentration in cream, 4 months",[4],1.729 Mg/gm
same,"isothiocyanate concentration in cream, 8 months",[4],0.308 Mg/gm
same,"isothiocyanate concentration in cream, 12 months",[4],0.233 Mg/gm
same,"isothiocyanate concentration in cream, Original",[4],0.551 Mg/gm
COc1cc(/C=C/C(=O)CC(=O)/C=C/c2ccc(O)c(OC)c2)ccc1O [Curcumin],Oral LD50,[6],> 2 g/kg body weight
"C[S+]([O-])CCCCCCN=C=S (centres unmarked) [6 MITC, 6-(methylsulfinyl)hexyl isothiocyanate]","isothiocyanate concentration in cream, 4 months",[4],0.341 Mg/gm
same,"isothiocyanate concentration in cream, 8 months",[4],0.614 Mg/gm
same,"isothiocyanate concentration in cream, 12 months",[4],0.571 Mg/gm
same,"isothiocyanate concentration in cream, Original",[4],0.123 Mg/gm
